Assays:
[1] = not given; remark: listed apart in the source

Structure (SMILES) | flash point [°C] | flash point [1] [°C]
Cc1ccc(C)c(C)c1 [1,2,4-TRIMETHYL BENZENE] | 45.5 | –
CCc1ccccc1CC [1,2-Diethylbenzene] | 57.2 | –
COCCOC [1,2-Dimethoxyethane] | -1.6 | –
NCCN [1,2-Ethanediamine] | 38 | –
Cc1cccc(C)c1 [1,3-Dimethylbenzene] | 25.0 | –
Cc1ccc(C)cc1 [1,4-Dimethylbenzene] | 26 | –
NCCCCCCN [1,6-Hexanediamine] | 81.0 | –
C=CC(C)(C)C [1-Butene, 3,3-dimethyl-] | -31.9 | –
CCCCCCCCCCCCO [1-DODECANOL] | 125 | –
C=CCCCCCCCCCC [1-DODECENE] | 67 | –
C=CCCCCCCCC [1-Decene] | 47.0 | –
C[Si]1(C)O[Si](C)(C)O[Si](C)(C)O1 [Hexamethylcyclotrisiloxane] | – | 32.00
C[Si](C)(C)[Si](C)(C)C [Hexamethyldisilane] | – | -1.00
C[Si](C)(C)N[Si](C)(C)C [Hexamethyldisilazane] | – | 8.00
CO[Si](C)(OC)c1ccccc1 [Methyl phenyldimethoxysilane] | – | 76.00
C[Si](Cl)(c1ccccc1)c1ccccc1 [Methyldiphenylchlorosilane] | – | 138.00
CO[Si](C)(OC)OC [Methyltrimethoxysilane] | – | 11.00
C[Si](C)(C)O[Si](C)(C)O[Si](C)(C)C [Octamethyltrisiloxane] | – | 30.00
C[SiH](C)O[Si](C)(C)C [Pentamethyldisiloxane] | – | -19.00
F[Si](F)(F)c1ccccc1 [Phenyl trifluorosilane] | – | -5.00

Structure (SMILES) | flash point [°C] | flash point [1] [°C]
[SiH3]c1ccccc1 [Phenylsilane] | – | 8.00
Cl[Si](Cl)(Cl)c1ccccc1 [Phenyltrichlorosilane] | – | 91.00
CCO[Si](OCC)(OCC)c1ccccc1 [Phenyltriethoxysilane] | – | 120.00
CCCO[Si](OCCC)(OCCC)OCCC [Tetra-n-propoxysilane] | – | 95.00
C[Si](C)(C)O[Si](C)(C)O[Si](C)(C)O[Si](C)(C)O[Si](C)(C)O[Si](C)(C)C [Tetradecamethylhexasiloxane] | – | 102.00
CO[Si](OC)(OC)OC [Tetramethoxysilane] | – | 21.00
Clc1cccc([Si](Cl)(Cl)Cl)c1Cl [Trichloro(dichlorophenyl)silane] | – | 146.00
CC(C)[SiH](C(C)C)C(C)C [Triisopropylsilane] | – | 37.00
CO[SiH](OC)OC [Trimethoxysilane] | – | -9.00
C[Si](C)(C)N=C=S [Trimethylsilylisothiocyanate] | – | 35.00
CN(C)[SiH](N(C)C)N(C)C [Tris(dimethylamino)silane] | – | 25.00
C[Si](C)(C)O[SiH](O[Si](C)(C)C)O[Si](C)(C)C [Tris(trimethylsiloxy)silane] | – | 50.00
C=C[Si](OC(C)=O)(OC(C)=O)OC(C)=O [Vinyltriacetoxysilane] | – | 88.00
C=C[Si](OCC)(OCC)OCC [Vinyltriethoxysilane] | – | 34.00
C=C[Si](OCCOC)(OCCOC)OCCOC [Vinyltris(methoxyethoxy)silane] | – | 80.00
C[Si](C)(C)CCOCCl [[2-(chloromethoxy)ethyl]trimethylsilane] | – | 46.00
CCO[Si](CCCS)(OCC)OCC [[3-(mercapto)propyl]triethoxysilane] | – | 87.78
C[Si](C)(C)c1ccc(Cl)cc1 [p-Chlorophenyltrimethylsilane] | – | 49.00
CC(C)(C)O[Si](C)(C)C [t-Butoxytrimethylsilane] | – | 14.00
CC(C)(C)[Si](C)(C)O [t-Butyldimethylsilanol] | – | 45.00

The next lines start with the values.

flash point [°C] | flash point [1] [°C] | Structure (SMILES)
57 | – | CCc1ccc(CC)cc1 [1,4-Diethylbenzene]
43.0 | – | CCC(C)CO (configuration not stated) [1-Butanol, 2-methyl-]
-31 | – | C=CCCCC [1-HEXENE]
50.5 | – | CCCCCCCS [1-Heptanethiol]
-8.0 | – | C=CCCCCC [1-Heptene]
27.0 | – | CCCCCCN [1-Hexanamine]
32.5 | – | CCCCCCS [1-Hexanethiol]
– | 154.00 | CCCCCCCCCCCCCCCC[Si](Cl)(Cl)Cl [Hexadecyltrichlorosilane]
– | 62.00 | CCCCCC[Si](OC)(OC)OC [Hexyltrimethoxysilane]
– | 37.00 | CC(C)C[Si](Cl)(Cl)Cl [Isobutyltrichlorosilane]
– | 24.00 | CCO[Si](C)(OCC)OCC [Methyltriethoxysilane]
– | 61.00 | C[Si](C)(Cl)c1ccccc1 [Phenyldimethylchlorosilane]
– | 27.00 | C#CCO[Si](C)(C)C [Propargyloxytrimethylsilane]
– | 50.00 | CCC[Si](O[SiH](C)C)(O[SiH](C)C)O[SiH](C)C [Propyltris(dimethylsiloxy)silane]
– | -28.00 | C[Si](C)(C)C [Tetramethylsilane]
– | 91.00 | Cl[Si](Cl)(Cl)CCc1ccccc1 [Trichloro(2-phenylethyl)silane]

flash point [°C] | flash point [1] [°C] | Structure (SMILES)
– | 15.00 | FC(F)(F)CC[Si](Cl)(Cl)Cl [Trichloro(3,3,3-trifluoropropyl)silane]
– | 69.00 | ClC[Si](Cl)(Cl)Cl [Trichloro(Chloromethyl) silane]
– | -3.00 | C[Si](C)(C)Br [Trimethyl bromosilane]
– | 10.00 | CCCO[Si](C)(C)C [Trimethyl-n-propoxysilane]
– | -35.00 | C[Si](C)(C)F [Trimethylfluorosilane]
– | 15.00 | C=C[Si](C)(CC)CC [Vinyldiethylmethylsilane]
– | 54.00 | CCCC[Si](Cl)(Cl)Cl [n-Butyltrichlorosilane]
– | 120.00 | CCCCCCCCCC[Si](C)(Cl)Cl [n-Decylmethyldichlorosilane]
– | 162.00 | CCCCCCCCCCCC[Si](Cl)(Cl)Cl [n-Dodecyltrichlorosilane]
– | 97.00 | CCCCCCCC[Si](C)(C)Cl [n-Octyldimethylchlorosilane]
– | 96.00 | CCCCCCCC[Si](Cl)(Cl)Cl [n-Octyltrichlorosilane]
– | 27.00 | CCC[Si](C)(Cl)Cl [n-Propylmethyldichlorosilane]
– | 25.00 | CCC[Si](OC)(OC)OC [n-Propyltrimethoxysilane]
– | 30.00 | CCCC(C)[Si](Cl)(Cl)Cl (configuration not stated) [sec-Amyltrichlorosilane]
– | 22.00 | CC(C)(C)[Si](C)(C)Cl [t-Butyldimethylchlorosilane]
– | 21.00 | CC(C)(C)[Si](Cl)(Cl)Cl [t-Butyltrichlorosilane]
